Measurements reported in patent publication US6649654B1, “Methods for identifying and using IKK inhibitors” (The Regents of the University of California, priority 1999, dated 2003).
Entries after “also recorded” stand apart in the source; their conditions may differ.

Experiments:
wild-type IKKβ = assay: 2XNFκB-LUC reporter in HeLa cells with NIK and wild-type IKKβ; type: cell-based; details: luciferase at 24 hours, FIG. 6E
Method: Recombinant IKKβ(C179A) was also resistant to concentrations of 15dPGJ2 that were inhibitory to wild-type IKKβ (as shown in FIG. 6D), and also to PGA1. An NF-κB dependent transcriptional reporter (2XNFκB-LUC) was preincubated with expression vector encoding either wild-type IKKβ or IKKβ(C179A). A NIK expression vector was included to ensure maximal IKK activation. […] FIG. 6E provides the results for HeLa cells transiently transfected with a 2×NF-κB-LUC reporter, a NIK expression vector and expression vectors for wild type IKKβ or IKKβ(C179A). At 3 hours post-transfection, cells were treated with 15dPGJ2 and at 24 hours, the luciferase activities were determined for duplicate samples. In each case, the maximal activity achieved in the absence of inhibitor was given an arbitrary value of 100% and the other values were calculated relative to this one.

IKK = IKK (Homo sapiens, UniProt O14920+O15111); assay: TNFα-induced IKK activity in human peripheral blood monocytes; type: cell-based
IKKβ = target: T1, IKKβ (Homo sapiens, UniProt O14920); assay: HA-tagged IKKβ overexpressed in COS cells: kinase activity and expression; type: cell-based
T1 sequence (O14920 1-756): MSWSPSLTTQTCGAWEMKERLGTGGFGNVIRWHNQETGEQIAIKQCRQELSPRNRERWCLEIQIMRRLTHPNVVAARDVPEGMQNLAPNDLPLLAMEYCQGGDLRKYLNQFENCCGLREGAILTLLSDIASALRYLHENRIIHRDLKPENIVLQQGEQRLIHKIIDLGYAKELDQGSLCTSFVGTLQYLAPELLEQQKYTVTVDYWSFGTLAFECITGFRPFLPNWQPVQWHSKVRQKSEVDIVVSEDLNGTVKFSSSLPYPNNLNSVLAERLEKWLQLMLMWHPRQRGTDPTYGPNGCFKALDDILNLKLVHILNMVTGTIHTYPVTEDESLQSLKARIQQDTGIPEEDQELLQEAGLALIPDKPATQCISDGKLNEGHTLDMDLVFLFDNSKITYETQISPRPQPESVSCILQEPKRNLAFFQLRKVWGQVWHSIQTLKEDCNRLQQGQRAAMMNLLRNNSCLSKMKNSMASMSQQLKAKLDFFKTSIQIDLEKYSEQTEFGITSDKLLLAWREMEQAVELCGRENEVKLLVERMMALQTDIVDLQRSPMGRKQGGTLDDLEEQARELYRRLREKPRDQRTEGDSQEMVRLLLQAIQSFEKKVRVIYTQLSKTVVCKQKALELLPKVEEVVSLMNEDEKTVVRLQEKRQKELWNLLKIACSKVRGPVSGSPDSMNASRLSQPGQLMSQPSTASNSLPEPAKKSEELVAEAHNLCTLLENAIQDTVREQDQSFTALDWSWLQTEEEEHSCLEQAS
Method: (§1) Cells used in the experiments described herein were cultured in either RPMI 1640 (Jurkat cells) or DMEM (HeLa and COS cells), supplemented with 10% FBS and antibiotics. Cells were stimulated with either 25 ng/ml TPA, 20 ng/ml recombinant TNFα, or 10 ng/ml interleukin 1β (Sigma). PGA1, 15dPGJ2, T×B2, LTB4, AA and other PGs (Cayman) dissolved in ethanol were used as well, as known in the art (See e.g., Rossi et al., 94:746-750 [1997]). Controls received equal amounts of ethanol. Transfections were performed using Lipofectamine Plus (GIBCO) for HeLa and COS cells and DEAE-dextran (Sigma) for Jurkat cells. Xpress-tagged NIK, Xpress-tagged MEKK1, HA-tagged IKKα, and HA-tagged IKKβ were also used (See e.g., Zandi et al., Science 281:1360-1363 [1998]; and Delhase et al., Science 284:309-313 [1999]). COX2 and cPLA2 expression vectors were obtained from Dr. L. Feng (See also, Hirose et al., J. Am. Soc. Nephrol., 9:408-416 [1998]). PGD synthase was cloned from HT29 colon carcinoma cell line cDNA by PCR and subcloned into a pCDNA3 vector. […]
Cell lysates were incubated with anti-IKKα (Pharmingen), anti-HA (12CA5; Pharmingen), anti-JNK1 (333.8; Pharmingen), or anti-p38 (New England Biolabs) for 2 hours. […] Endogenous IKK, HA-tagged IKKα, endogenous JNK1, and p38 activities were determined with GST-1κBα(1-54), GST-c-Jun(1-79), and GST-ATF2 as substrates.

NF-κB = NF-κB activation by EMSA in Jurkat cells stimulated with TNFα or TPA; type: cell-based, human
Method: as §1, with “vector. Cells were lysed in buffer B (50 mM Tris-HCl, pH 7.5, 400 mM NaCl, 1 mM EDTA, 1 mM EGTA, 1% Triton, 0.5% NP-40, 10% glycerol, and supplemented with 20 mM β-glycerophosphate, 10 mM PNPP, […] 1 mM PMSF, 20 μg/ml aprotinin, 2.5 μg/ml leupeptin, 8.3 μg/ml bestatin, 1.7 μg/ml pepstatin, and 2 mM DTT).” for “vector.”

Chain of IKK (O15111 whole entry, one chain of several): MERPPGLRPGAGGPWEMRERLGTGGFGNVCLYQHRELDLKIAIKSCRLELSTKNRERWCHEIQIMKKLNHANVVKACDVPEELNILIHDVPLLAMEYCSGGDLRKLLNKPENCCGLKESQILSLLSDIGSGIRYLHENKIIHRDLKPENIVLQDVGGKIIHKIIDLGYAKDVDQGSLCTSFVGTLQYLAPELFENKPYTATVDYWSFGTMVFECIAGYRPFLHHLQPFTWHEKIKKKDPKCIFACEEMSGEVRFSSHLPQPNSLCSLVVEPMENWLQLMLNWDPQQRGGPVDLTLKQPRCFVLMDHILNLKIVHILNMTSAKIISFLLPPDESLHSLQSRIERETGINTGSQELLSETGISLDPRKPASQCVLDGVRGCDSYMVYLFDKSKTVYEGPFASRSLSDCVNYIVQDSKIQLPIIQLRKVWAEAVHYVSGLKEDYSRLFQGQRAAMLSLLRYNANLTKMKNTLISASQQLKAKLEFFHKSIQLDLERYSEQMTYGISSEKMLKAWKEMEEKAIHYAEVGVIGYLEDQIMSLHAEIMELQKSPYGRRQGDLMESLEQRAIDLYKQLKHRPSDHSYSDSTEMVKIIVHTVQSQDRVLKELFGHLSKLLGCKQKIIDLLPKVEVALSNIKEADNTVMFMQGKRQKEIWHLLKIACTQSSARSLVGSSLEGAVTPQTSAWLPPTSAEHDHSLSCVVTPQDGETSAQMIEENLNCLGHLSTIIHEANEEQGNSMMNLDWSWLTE
Chain of IKK (Q9Y6K9 whole entry partner, one chain of several): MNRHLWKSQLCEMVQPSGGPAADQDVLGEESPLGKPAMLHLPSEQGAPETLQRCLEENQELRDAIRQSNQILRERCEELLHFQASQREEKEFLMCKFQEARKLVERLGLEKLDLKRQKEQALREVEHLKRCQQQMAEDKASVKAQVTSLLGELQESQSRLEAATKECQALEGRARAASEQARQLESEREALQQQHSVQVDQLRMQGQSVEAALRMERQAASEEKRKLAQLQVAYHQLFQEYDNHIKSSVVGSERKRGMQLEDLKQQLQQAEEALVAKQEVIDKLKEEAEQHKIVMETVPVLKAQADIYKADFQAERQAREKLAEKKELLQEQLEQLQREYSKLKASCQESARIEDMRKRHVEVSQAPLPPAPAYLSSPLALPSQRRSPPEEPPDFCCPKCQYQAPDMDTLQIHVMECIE

Row | SMILES | sensitivity of NF-κB transcriptional activity through wild-type IKKβ (wild-type IKKβ) | effect on TNFα-induced IKK activity (IKK) | effect on IKKβ expression (immunoblotting) (IKKβ; COS cells overexpressing HA-tagged IKKβ) | effect on kinase activity of overexpressed HA-tagged IKKβ (IKKβ; COS cells, PGA1 15 or 30 μM, FIG. 2C) | IC50 (NF-κB; Homo sapiens, read-out: half-maximal inhibitory (IC50) concentration towards NF-κB) | effect on NF-κB activation (NF-κB; TNFα or TPA)
1 | CCCCC/C=C/C=C1/C(=O)C=C[C@@H]1C/C=C\CCCC(=O)O [15dPGJ2, 15-deoxy-Δ^12-14-PGJ2] | highly sensitive | inhibited |  |  |  | 
2 | CCCCC[C@H](O)/C=C/[C@H]1C=CC(=O)C1CCCCCCC(=O)O (stereo partly drawn) [PGA1, prostaglandin A1] |  |  | did not affect | strongly inhibited; also recorded: inhibits | 12 µM | prevented
